Source: PubChem BioAssay (NCI)
Values joined by “and” are separate entries in the source; they are usually repeats but may differ in a detail not shown here. Equal entries are not always repeated.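 48-hour exposure; five concentrations; linearly interpolated endpoints. Here, GI50 denotes the concentration required for 50% inhibition of growth. TGI is the concentration that stops growth completely.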

What was measured:
Experiment in all cases: NCI anticancer screen, dose series, 48 h
BT-549 breast = tested on: BT-549 breast
M14 melanoma = tested on: M14 melanoma
SK-MEL-2 melanoma = tested on: SK-MEL-2 melanoma
OVCAR-4 ovarian = tested on: OVCAR-4 ovarian
IGROV1 ovarian = tested on: IGROV1 ovarian
SNB-19 CNS = tested on: SNB-19 CNS
SK-MEL-28 melanoma = tested on: SK-MEL-28 melanoma
HL-60(TB) leukemia = tested on: HL-60(TB) leukemia
HS 578T breast = tested on: HS 578T breast
T-47D breast = tested on: T-47D breast

SMILES	GI50 (BT-549 breast)	TGI (BT-549 breast)	GI50 (M14 melanoma)	TGI (M14 melanoma)	GI50 (SK-MEL-2 melanoma)	TGI (SK-MEL-2 melanoma)	GI50 (OVCAR-4 ovarian)	TGI (OVCAR-4 ovarian)	GI50 (IGROV1 ovarian)	TGI (IGROV1 ovarian)	GI50 (SNB-19 CNS)	TGI (SNB-19 CNS)	GI50 (SK-MEL-28 melanoma)	TGI (SK-MEL-28 melanoma) [µM]	GI50 (HL-60(TB) leukemia)	TGI (HL-60(TB) leukemia)	GI50 (HS 578T breast)	TGI (HS 578T breast)	GI50 (T-47D breast)	TGI (T-47D breast) [µM]
COc1cc(C(=O)N2CCN(c3ncnc4ccccc34)CC2)c(N)cc1OCc1ccccc1	11.3 µM	25 µM	15.2 µM	28.6 µM	16.5 µM	41.3 µM	13.2 µM	47 µM	17.8 µM	41.6 µM	13.7 µM	29.8 µM	16.5 µM	30.5	20.4 µM	47.7 µM	17.1 µM	55.7 µM	7.08 µM	40.9
O=C(Nc1ccncc1)C(=O)c1cn(S(=O)(=O)c2ccc(Cl)cc2)c2ccccc12	3.75 µM	> 80.5 µM	0.634 µM	> 52.1 µM	3.24 µM	27.3 µM	3.89 µM	> 70.3 µM	3.29 µM	> 100 µM	5.94 µM	51.5 µM	1.06 µM	> 50.4	0.401 µM		11.2 µM	> 100 µM	0.905 µM	> 100
O=Nc1ccc(NO)c2ccccc12	15.7 µM	29.4 µM	16.5 µM	31.3 µM	18.3 µM	34.4 µM	3.33 µM	16.2 µM	3.62 µM	16.4 µM	15.1 µM	28.5 µM	15.1 µM	28.6	3.14 µM	7.56 µM	28.3 µM	> 100 µM	3.67 µM	21.4
O=C(O)C1(C(=O)O)CCC1.[NH2-].[NH2-].[Pt+2]	97.5 µM and 200 µM	> 250 µM	109 µM and 184 µM	248 µM and > 250 µM	161 µM and > 250 µM	244 µM and > 250 µM	84 µM and 120 µM	221 µM and > 250 µM	47.2 µM and 91.8 µM	130 µM and 194 µM	148 µM and 103 µM	224 µM and > 250 µM	174 µM	> 246	29.5 µM and 12.7 µM	201 µM and 191 µM	73.6 µM and 121 µM	> 250 µM	> 250 µM	> 250
[N-]=[N+]=NCCCCCC(=O)OC(C(=O)c1ccccc1)c1cccc(OCC(=O)NCCOCCOCCNC(=O)CCCC[C@@H]2SC[C@@H]3NC(=O)N[C@@H]32)c1 (stereo not given in full)	26.2 µM	84.7 µM	> 100 µM	> 100 µM	> 100 µM	> 100 µM	> 100 µM	> 100 µM	> 100 µM	> 100 µM	> 100 µM	> 100 µM	> 100 µM	> 100	27.8 µM	> 100 µM	> 100 µM	> 100 µM	60.7 µM	> 100
COc1cc(NCCCN=C(N)NC(N)=NC(C)C)c2ncccc2c1	10 µM	22.8 µM	27.4 µM	> 83.1 µM	2.68 µM	10.1 µM	0.0588 µM	1.64 µM	0.467 µM	3.77 µM	11 µM	64.4 µM	13.6 µM	35.2	10.8 µM	31.8 µM	14 µM	46.1 µM	1.58 µM	
Cc1nc(-c2cn3c(n2)-c2ccc(-c4cnn(C(C)(C)C(N)=O)c4)cc2OCC3)n(C(C)C)n1	0.633 µM and 0.594 µM	17.4 µM and > 10 µM	3.24 µM and 3.57 µM	26 µM and > 10 µM	4.25 µM and 4.74 µM	24.2 µM and > 10 µM		> 10 µM	< 0.0106 µM and 0.00612 µM	0.0829 µM and 0.0677 µM	1.92 µM and 2.47 µM	> 100 µM	0.535 µM and 0.414 µM	> 38.3	< 0.0202 µM and 0.00955 µM	25.8 µM and > 10 µM	0.147 µM and 0.169 µM	13 µM and > 10 µM	< 0.0384 µM and 0.00372 µM	
COc1ccc2ccccc2c1C1NC(=O)c2ccccc2N1 (stereo not given)		> 100 µM		10.2 µM		> 100 µM				> 100 µM		> 100 µM		> 100		0.877 µM		> 31.3 µM		> 100
CS(=O)(=O)CCc1cccc(C(=O)c2cnn(-c3ccc(F)cc3)c2N)c1	> 25 µM	> 25 µM	> 25 µM	> 25 µM	> 25 µM	> 25 µM	> 25 µM	> 25 µM	> 25 µM	> 25 µM	> 25 µM	> 25 µM	> 25 µM	> 25	> 9.84 µM	> 23.8 µM	> 25 µM	> 25 µM	> 25 µM	> 25
COc1cc(-c2cc(O)c(-c3ccc4ccccc4n3)c(=O)[nH]2)cc(OC)c1OC		> 100 µM		> 95.2 µM		> 78.9 µM		> 53.6 µM		> 78.8 µM		> 100 µM		> 100		35.3 µM		> 100 µM		> 100
Cc1nnc(-c2cccc(-c3ccc(C(=O)NCC4CC4)cc3)c2)o1	> 25 µM	> 25 µM	> 25 µM	> 25 µM	> 25 µM	> 25 µM	> 25 µM	> 25 µM	> 25 µM	> 25 µM	> 25 µM	> 25 µM	> 25 µM	> 25	> 25 µM	> 25 µM	> 25 µM	> 25 µM	> 16.9 µM	> 25
O=c1cc(-c2cccc3c2Sc2ccccc2S3)oc(N2CCOCC2)c1	4.25 µM	17 µM	11.1 µM	24.3 µM	5.71 µM	19.3 µM	11.2 µM	31.9 µM	4.08 µM	17.7 µM	13.9 µM	33.6 µM	11.1 µM	24.1	11.6 µM	32.3 µM	3.08 µM	19.5 µM	3.69 µM	18.2
O=C(NCCCO)c1cc(Cl)ccc1O	3.27 µM	12.7 µM	3.85 µM	15.7 µM	2.82 µM	6.54 µM	2.54 µM	12.4 µM	3.94 µM	17 µM	2.26 µM	17.6 µM	4.45 µM	17.3	2.22 µM	6.35 µM	3.98 µM	21.4 µM	1.67 µM	18
